The results in this text go back to ChEMBL document CHEMBL3992562, “Multifunctional thioxanthone derivatives with acetylcholinesterase, monoamine oxidases and β-amyloid aggregation inhibitory activities as potential agents against Alzheimer's disease” (Bioorg Med Chem, 2017).

A short description of data set [1]: Inhibition of rat serum BuChE using S-butylthiocholine iodide as substrate measured after 15 mins by Ellman's method.
Data set [2] is described as follows: Metal chelating activity assessed as Fe2+-compound complex formation at 37.5 uM after 30 mins by UV-visible spectrometry. It counts as functional.
Data set [3] in a line: Cytotoxicity against human SH-SY5Y cells assessed as cell viability at 100 uM after 24 hrs by MTT assay relative to control. The note with it: read-out: Activity. It is filed as cell-based.
Data set [4] in a line: Cytotoxicity against human SH-SY5Y cells assessed as cell viability at 1 uM after 24 hrs by MTT assay relative to control. It is filed as cell-based. The note with it: read-out: Activity. A general note: Tetrazolium assays rely on reduction of a dye to a coloured formazan, in cell work by metabolically active cells.
Data set [5] in a line: Cytotoxicity against human SH-SY5Y cells assessed as cell viability at 10 uM after 24 hrs by MTT assay relative to control. It is filed as cell-based. The note with it: read-out: Activity.
Data set [6] addresses T1, Amine oxidase [flavin-containing] A (Homo sapiens, UniProt P21397).
T1 sequence (P21397 whole entry): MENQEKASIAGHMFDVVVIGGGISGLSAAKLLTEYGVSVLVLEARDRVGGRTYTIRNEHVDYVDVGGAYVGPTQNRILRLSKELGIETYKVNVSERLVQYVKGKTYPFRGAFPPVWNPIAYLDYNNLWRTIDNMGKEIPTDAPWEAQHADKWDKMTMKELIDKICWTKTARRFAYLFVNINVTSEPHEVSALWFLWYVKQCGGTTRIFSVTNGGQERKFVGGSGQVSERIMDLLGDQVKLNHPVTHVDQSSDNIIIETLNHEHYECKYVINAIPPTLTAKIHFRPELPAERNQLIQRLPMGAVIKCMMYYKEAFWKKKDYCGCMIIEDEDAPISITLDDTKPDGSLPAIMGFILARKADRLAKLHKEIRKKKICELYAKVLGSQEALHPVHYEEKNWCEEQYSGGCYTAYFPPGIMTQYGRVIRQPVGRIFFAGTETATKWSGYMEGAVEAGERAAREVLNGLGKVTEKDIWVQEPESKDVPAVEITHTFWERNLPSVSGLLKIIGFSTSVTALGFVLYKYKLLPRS
Put plainly: Inhibition of recombinant human MAO-A expressed in baculovirus infected BTI insect cells using kynuramine as substrate after 30 mins by fluorimetric method.

In data set [7] the target is Acetylcholinesterase (Electrophorus electricus, UniProt O42275). Briefly: Inhibition of electric eel AChE using acetylthiocholine iodide as substrate measured after 15 mins by Ellman's method. On the technique in general: In Ellman's method for cholinesterases, released thiocholine reacts with DTNB.
Data set [8] in a line: Inhibition of cupric ion-mediated amyloid beta (1 to 42) aggregation at 25 uM measured after 24 hrs by ThT fluorescence assay relative to control.
A short description of data set [9]: Metal chelating activity assessed as mole fraction of compound required to show 1:1.5 stoichiometry for Cu2+-compound complex at 37.5 uM after 30 mins by UV-visible spectrometry. It counts as functional.
A short description of data set [10]: Permeability of the compound at 100 ug/ml after 18 hrs by PAMPA. It counts as physicochemical. The note with it: read-out: permeability. In general terms: The PAMPA barrier holds no transporters, so it reflects passive diffusion.
The target of data set [11] is T2, Amine oxidase [flavin-containing] B (Homo sapiens, UniProt P27338).
T2 sequence (P27338 whole entry): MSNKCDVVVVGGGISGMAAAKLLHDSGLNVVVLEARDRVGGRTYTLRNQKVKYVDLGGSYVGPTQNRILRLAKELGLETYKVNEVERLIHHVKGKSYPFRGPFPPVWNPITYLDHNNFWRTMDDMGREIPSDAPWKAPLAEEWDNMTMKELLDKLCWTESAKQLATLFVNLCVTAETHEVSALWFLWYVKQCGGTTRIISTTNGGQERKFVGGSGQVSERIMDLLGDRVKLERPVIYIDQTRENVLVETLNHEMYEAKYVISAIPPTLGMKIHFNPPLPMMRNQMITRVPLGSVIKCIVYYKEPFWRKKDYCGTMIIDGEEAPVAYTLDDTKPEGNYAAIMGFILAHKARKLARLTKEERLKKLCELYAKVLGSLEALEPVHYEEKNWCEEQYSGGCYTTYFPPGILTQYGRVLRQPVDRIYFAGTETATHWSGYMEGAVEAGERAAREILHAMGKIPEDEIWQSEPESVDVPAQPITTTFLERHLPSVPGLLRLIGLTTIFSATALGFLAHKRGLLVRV
Briefly: Inhibition of recombinant human MAO-B expressed in baculovirus infected BTI insect cells using kynuramine as substrate after 30 mins by fluorimetric method. It is filed as cell-based.

Data set [12] in a line: Antioxidant activity assessed as trolox equivalent of AAPH-induced radical scavenging activity at 5 uM incubated for 15 mins prior to APPH challenge measured every minute for 90 mins by ORAC-FL assay. It counts as functional.
Data set [13] can be described thus: Metal chelating activity assessed as Cu2+-compound complex formation at 37.5 uM after 30 mins by UV-visible spectrometry. It is filed as functional.
For data set [14], the species on record is Homo sapiens. Put plainly: Selectivity index, ratio of IC50 for recombinant human MAO-A expressed in baculovirus infected BTI insect cells to IC50 for recombinant human MAO-B expressed in baculovirus infected BTI insect cells.
Data set [15] deals with BuChE (butyrylcholinesterase). Briefly: Inhibition of rat serum BuChE at 50 uM using S-butylthiocholine iodide as substrate measured after 15 mins by Ellman's method relative to control. The note with it: probe S-butylthiocholine iodide.
Data set [16] is described as follows: Metal chelating activity assessed as Zn2+-compound complex formation at 37.5 uM after 30 mins by UV-visible spectrometry. It is filed as functional.
Data set [17] can be described thus: Metal chelating activity assessed as Al3+-compound complex formation at 37.5 uM after 30 mins by UV-visible spectrometry. It is filed as functional.
Data set [18] has as its target Amyloid-beta precursor protein (Homo sapiens) (UniProt P05067). Put plainly: Inhibition of self-induced amyloid beta (1 to 42) (unknown origin) aggregation at 25 uM measured after 24 hrs by ThT fluorescence assay relative to control.
The target of data set [19] is Acetylcholinesterase (Electrophorus electricus) (UniProt O42275). Put plainly: Mixed-type inhibition of electric eel AChE using acetylthiocholine iodide as substrate preincubated for 15 mins followed by substrate addition by Lineweaver-Burk plot analysis.

Calls of active or inactive are those of the source. The rule behind the calls is not given here.

Chain of Acetylcholinesterase (O42275 whole entry): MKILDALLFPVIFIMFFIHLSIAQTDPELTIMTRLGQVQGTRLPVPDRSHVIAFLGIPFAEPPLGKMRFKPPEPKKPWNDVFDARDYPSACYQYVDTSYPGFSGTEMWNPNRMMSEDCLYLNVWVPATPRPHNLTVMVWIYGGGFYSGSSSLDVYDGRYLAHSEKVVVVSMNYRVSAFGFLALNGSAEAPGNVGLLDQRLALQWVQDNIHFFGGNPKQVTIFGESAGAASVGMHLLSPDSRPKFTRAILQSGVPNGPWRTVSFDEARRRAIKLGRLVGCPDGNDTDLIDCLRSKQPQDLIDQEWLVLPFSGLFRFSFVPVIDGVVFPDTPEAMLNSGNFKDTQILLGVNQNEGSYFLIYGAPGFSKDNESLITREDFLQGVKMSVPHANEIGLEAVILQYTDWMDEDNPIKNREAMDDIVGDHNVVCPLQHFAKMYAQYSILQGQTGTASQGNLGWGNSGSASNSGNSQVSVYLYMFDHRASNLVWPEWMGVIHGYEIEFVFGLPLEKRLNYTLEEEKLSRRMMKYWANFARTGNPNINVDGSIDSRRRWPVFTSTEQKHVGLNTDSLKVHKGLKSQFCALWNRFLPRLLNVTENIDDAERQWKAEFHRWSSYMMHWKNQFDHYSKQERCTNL
Chain of Amyloid-beta precursor protein (Homo sapiens) (P05067 whole entry): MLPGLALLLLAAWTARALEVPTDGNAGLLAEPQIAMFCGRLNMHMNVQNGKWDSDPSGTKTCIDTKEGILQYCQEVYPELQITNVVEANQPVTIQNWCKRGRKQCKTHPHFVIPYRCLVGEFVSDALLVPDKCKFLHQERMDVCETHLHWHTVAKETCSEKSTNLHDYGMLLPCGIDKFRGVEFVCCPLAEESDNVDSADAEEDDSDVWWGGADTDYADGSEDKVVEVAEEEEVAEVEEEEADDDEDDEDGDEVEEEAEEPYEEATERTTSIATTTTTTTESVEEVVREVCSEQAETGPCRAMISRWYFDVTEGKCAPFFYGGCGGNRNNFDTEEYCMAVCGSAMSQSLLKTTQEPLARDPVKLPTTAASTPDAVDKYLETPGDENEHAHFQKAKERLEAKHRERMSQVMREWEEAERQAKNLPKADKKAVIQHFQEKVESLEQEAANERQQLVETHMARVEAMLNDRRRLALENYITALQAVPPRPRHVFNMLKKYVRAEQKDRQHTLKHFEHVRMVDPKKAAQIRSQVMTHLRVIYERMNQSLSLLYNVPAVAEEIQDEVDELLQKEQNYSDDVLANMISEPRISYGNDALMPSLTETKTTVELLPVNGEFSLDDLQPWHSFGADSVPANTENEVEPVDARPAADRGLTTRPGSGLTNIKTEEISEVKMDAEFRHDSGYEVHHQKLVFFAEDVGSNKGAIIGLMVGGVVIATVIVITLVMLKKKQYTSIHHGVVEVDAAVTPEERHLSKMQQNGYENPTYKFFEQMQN
Chain of Acetylcholinesterase (Electrophorus electricus) (O42275 24-633 limits assumed): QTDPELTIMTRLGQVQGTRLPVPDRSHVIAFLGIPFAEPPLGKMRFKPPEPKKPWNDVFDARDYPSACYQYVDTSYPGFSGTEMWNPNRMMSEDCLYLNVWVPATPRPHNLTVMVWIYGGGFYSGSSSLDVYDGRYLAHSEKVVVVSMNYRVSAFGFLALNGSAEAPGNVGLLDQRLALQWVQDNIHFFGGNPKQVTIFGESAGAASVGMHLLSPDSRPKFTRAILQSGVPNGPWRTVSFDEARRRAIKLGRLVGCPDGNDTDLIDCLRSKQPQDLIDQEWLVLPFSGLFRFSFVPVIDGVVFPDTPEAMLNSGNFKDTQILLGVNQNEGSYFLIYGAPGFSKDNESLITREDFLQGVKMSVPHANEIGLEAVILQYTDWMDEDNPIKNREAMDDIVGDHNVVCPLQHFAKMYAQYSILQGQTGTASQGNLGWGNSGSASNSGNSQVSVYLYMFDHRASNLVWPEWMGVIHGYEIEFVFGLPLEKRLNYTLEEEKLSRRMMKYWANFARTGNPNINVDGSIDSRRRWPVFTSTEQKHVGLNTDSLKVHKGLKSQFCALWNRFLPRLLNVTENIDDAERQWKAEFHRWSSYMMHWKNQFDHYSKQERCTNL

Turning to `COc1cc2c(cc1OC)C(=O)C(CC1CCN(Cc3ccccc3)CC1)C2` (stereo not drawn) [DONEPEZIL], in data set [1], it took 21400 nM to reach half-maximal inhibition (IC50).
For `CCN(CCCCCCOc1cc(O)c2c(=O)c3ccccc3sc2c1)Cc1ccccc1N(C)C`, the result in data set [2] and in data set [13] was Active. In addition, in data set [3], the viability at 24 h, 100 µM worked out at 68.1%. Besides, the viability at 24 h, 1 µM in data set [4] came to 99.7%. Further, the viability at 24 h, 10 µM in [5] was found to be 96.8%. In addition, the values for the IC50 in data set [6], in [7] and in data set [11] were 1010 nM, 590 nM and 900 nM, respectively. In addition, the values for the inhibition in data set [8] and in data set [18] were 87.7% and 74.8%, respectively. Moreover, the figures for the Activity in data set [9] and in data set [12] were 1.5 molar ratio and 0.74 µMequiv/µM, respectively. Besides, the Papp at 18 h, 100 ug/ml in [10] was determined as 3.49 ×10⁻⁶ cm/s. The Ratio IC50 in data set [14] worked out at 1.12. Also, the inhibition at 0.25 h, 50 µM in [15] was 28.7%. The result in data set [16] and in [17] was inactive. Also, in data set [19], the inhibition entry was “Active”.
Regarding `CCN(CCCCCCOc1cc(O)c2c(=O)c3ccccc3sc2c1)Cc1ccccc1`, the results for the IC50 in data set [6], in data set [7] and in data set [11] were 1440 nM, 580 nM and 330 nM, respectively. Besides, the inhibition stood at 76.4% in data set [8] and 50.6% in data set [18]. Further, the Papp at 18 h, 100 ug/ml in [10] is 4.12 ×10⁻⁶ cm/s. The Activity in [12] is 0.17 µMequiv/µM. In addition, the Ratio IC50 in data set [14] is 4.36. The inhibition at 0.25 h, 50 µM in data set [15] was 8.83%.

The term IC50 denotes the concentration needed to halve the response being measured. As a reminder, the inhibition is the drop in the measured response relative to a control, in per cent.
